{"source": "ChEMBL document CHEMBL4765340", "about": "“Novel potent antiplatelet thrombotic agent derived from biguanide for ischemic stroke” (Eur J Med Chem, 2020)", "key": {"[1]": {"test": "Inhibition of thrombin-stimulated human platelet aggregation by measuring aggregation at 0.50 mM measured after 4 hrs by scanning electron microscopy", "type": "functional", "design": "scale not given: the % may be the effect or the level left", "conditions": "dose 0.5 mM"}, "[2]": {"tested_on": "Mus musculus", "test": "Antithrombotic activity in transient focal cerebral ischemic mouse model occlusion induced 60 mins of the right middle cerebral artery followed by reperfussion 23 hrs assessed as decrease in mortality rate at 200 mg/kg, po twice daily for 7 days […]", "type": "functional, organism-based", "conditions": "time 7.0 day"}, "[3]": {"tested_on": "Mus musculus", "test": "Antithrombotic activity in calcein-labelled platelet-mediated ferric chloride-induced arterial injury thrombosis C57BL/6J mouse model assessed as thrombus weight at 50 mg/kg, po administrated twice a day measured upto 7 days (reference value: 3.3 +/- 0.3 mg)", "type": "functional", "conditions": "time day <=7"}, "[4]": {"test": "Toxicity against diabetic C57BL/6J mouse assessed hypoglycemic activity at 200 mg/kg twice a day measured after 60 days relative to parent compound", "type": "organism-based", "conditions": "in vivo, 1440 h, time 60 day"}, "[5]": {"test": "Inhibition of thrombin-induced platelet aggregation in mouse platelet isolated from C57BL/6J mouse treated at 200 mg/kg, ig twice a day for 7 days by lumi-aggregometer", "type": "functional", "conditions": "po, 168 h, time 7 day"}, "[6]": {"test": "Toxicity in C57BL/6J mouse assessed as change in glucose level at 200 mg/kg twice daily for 60 days relative to control", "type": "organism-based", "conditions": "in vivo, 1440 h, time 60 day"}, "[7]": {"test": "Toxicity in C57BL/6J mouse assessed as change in platelet distribution width at 200 mg/kg twice daily for 60 days relative to control", "type": "organism-based", "conditions": "in vivo, 1440 h, time 60 day"}, "[8]": {"tested_on": "Mus musculus", "test": "Antithrombotic activity in transient focal cerebral ischemic mouse model occlusion induced 60 mins of the right middle cerebral artery followed by reperfussion 23 hrs assessed as improve in damaged neural function at 200 mg/kg, po twice daily for 7 days", "type": "functional, organism-based", "conditions": "time 7.0 day"}, "[9]": {"test": "Toxicity in C57BL/6J mouse assessed as change in platelet ratio at 200 mg/kg twice daily for 60 days relative to control", "type": "organism-based", "conditions": "in vivo, 1440 h, time 60 day"}, "[10]": {"test": "Toxicity in calcein-labelled platelet-mediated ferric chloride-induced arterial injury thrombosis po dosed C57BL/6J mouse model assessed as change in activated partial thromboplastin time treated twice a day measured upto 7 days", "type": "organism-based", "conditions": "in vivo, 168 h, time <=7 day"}, "[11]": {"test": "AUC (0 to infinity) in Sprague-Dawley rat at 200 mg/kg, po measured by HPLC-MS/MS analysis", "type": "ADME, organism-based", "design": "time infinity, route oral, dose 200 mg/kg", "conditions": "in vivo"}, "[12]": {"test": "Toxicity against C57BL/6J mouse assessed as lungs morphology at 200 mg/kg twice a day measured after 60 days", "type": "organism-based", "conditions": "in vivo, 1440 h, time 60 day"}, "[13]": {"test": "Inhibition of thrombin-stimulated human platelet aggregation by measuring aggregation at 0.50 mM measured after 3 hrs by scanning electron microscopy", "type": "functional", "design": "scale not given: the % may be the effect or the level left", "conditions": "dose 0.5 mM"}, "[14]": {"test": "Toxicity against C57BL/6J mouse assessed as body weight at 200 mg/kg twice a day measured after 60 days", "type": "organism-based", "conditions": "in vivo, 1440 h, time 60 day"}, "[15]": {"tested_on": "Platelet", "test": "Cytotoxicity against human platelet assessed as extracellular LDH levels changes at 1 mM incubated for 6 hrs", "type": "cell-based", "conditions": "1000 µM"}, "[16]": {"test": "Toxicity in calcein-labelled platelet-mediated ferric chloride-induced arterial injury thrombosis po dosed C57BL/6J mouse model assessed as change in thrombin time treated twice a day measured upto 7 days", "type": "organism-based", "conditions": "in vivo, 168 h, time <=7 day"}, "[17]": {"test": "Toxicity in C57BL/6J mouse assessed as change in potassium level at 200 mg/kg twice daily for 60 days relative to control", "type": "organism-based", "conditions": "in vivo, 1440 h, time 60 day"}, "[18]": {"test": "Toxicity in C57BL/6J mouse assessed as change in platelet count at 200 mg/kg twice daily for 60 days relative to control", "type": "organism-based", "conditions": "in vivo, 1440 h, time 60 day"}, "[19]": {"tested_on": "Platelet", "test": "Antiplatelet activity in human platelet on collagen-coated surface assessed as shear rate pre-incubated at 0.5 mM measured after 3 hrs by fluorescent microscopy (reference value: 100 =/- 7%)", "type": "functional"}, "[20]": {"test": "Toxicity against C57BL/6J mouse assessed as effect on blood lactic acid at 200 mg/kg twice a day measured after 60 days", "type": "organism-based", "conditions": "in vivo, 1440 h, time 60 day"}, "[21]": {"test": "Suppression of glycoprotein IIb/IIIa activation in thrombin-stimulated human platelets by measuring activated GPIIb/IIIa at 0.05 mM measured after 3 hrs by PAC-1-FITC dye based flow cytometry (reference value: 90.1%)", "type": "functional", "conditions": "Platelet"}, "[22]": {"test": "Suppression of P-selectin expression in thrombin-stimulated human platelets by measuring CD62P positive platelets at 0.01 mM after 3 hrs by flow cytometry analysis (reference value: 78.2%)", "type": "functional", "conditions": "Platelet"}, "[23]": {"test": "Suppression of glycoprotein IIb/IIIa activation in thrombin-stimulated human platelets by measuring activated GPIIb/IIIa at 1 mM measured after 3 hrs by PAC-1-FITC dye based flow cytometry (reference value: 90.1%)", "type": "functional", "conditions": "Platelet"}, "[24]": {"tested_on": "Mus musculus", "test": "Antithrombotic activity in calcein-labelled platelet-mediated ferric chloride-induced arterial injury thrombosis C57BL/6J mouse model assessed as average time to occlusive thrombosis at 300 mg/kg, po administrated twice a day measured upto 7 days (reference value: 7.9 +/- 0.7 min)", "type": "functional", "conditions": "time day <=7"}, "[25]": {"test": "Inhibition of thrombin-stimulated human platelet aggregation by measuring aggregation at 0.10 mM measured after 3 hrs by scanning electron microscopy (Rvb= 87.2 +/- 4.0%)", "type": "functional", "design": "scale not given: the % may be the effect or the level left", "conditions": "dose 0.1 mM"}, "[26]": {"tested_on": "Platelet", "test": "Inhibition of thrombin-stimulated human platelet aggregation measured after 3 hrs by scanning electron microscopy with 0.01 to 1 U/ml varying concentration of thrombin by lumi-aggregometer", "type": "functional, tissue-based"}, "[27]": {"test": "Toxicity in C57BL/6J mouse assessed as change in blood urea nitrogen level at 200 mg/kg twice daily for 60 days relative to control", "type": "organism-based", "conditions": "in vivo, 1440 h, time 60 day"}, "[28]": {"test": "Cmax in Sprague-Dawley rat at 200 mg/kg, po compound dissolved in DMSO measured after 2 hr by HPLC-MS/MS analysis", "type": "ADME, organism-based", "design": "route oral, time 2 hrs, dose 200 mg/kg", "conditions": "in vivo"}, "[29]": {"test": "Toxicity in calcein-labelled platelet-mediated ferric chloride-induced arterial injury thrombosis po dosed C57BL/6J mouse model assessed as change in coagulation factor V treated twice a day measured upto 7 days", "type": "organism-based", "conditions": "in vivo, 168 h, time <=7 day"}, "[30]": {"test": "Inhibition of thrombin-stimulated human platelet aggregation by measuring aggregation at 0.50 mM measured after 3 hrs by scanning electron microscopy (Rvb= 87.2 +/- 4.0%)", "type": "functional", "design": "scale not given: the % may be the effect or the level left", "conditions": "dose 0.5 mM"}, "[31]": {"tested_on": "Mus musculus", "test": "Antithrombotic activity in calcein-labelled platelet-mediated ferric chloride-induced arterial injury thrombosis C57BL/6J mouse model assessed as thrombus length at 50 mg/kg, po administrated twice a day measured upto 7 days (reference value: 4.4 +/- 0.4 mm)", "type": "functional", "conditions": "time day <=7"}, "[32]": {"test": "Toxicity against C57BL/6J mouse assessed as kidney morphology at 200 mg/kg twice a day measured after 60 days", "type": "organism-based", "conditions": "in vivo, 1440 h, time 60 day"}, "[33]": {"tested_on": "Mus musculus", "test": "Antithrombotic activity in calcein-labelled platelet-mediated ferric chloride-induced arterial injury thrombosis C57BL/6J mouse model assessed as thrombus weight at 100 mg/kg, po administrated twice a day measured upto 7 days (reference value: 3.3 +/- 0.3 mg)", "type": "functional", "conditions": "time day <=7"}, "[34]": {"test": "Suppression of P-selectin expression in thrombin-stimulated human platelets by measuring CD62P positive platelets at 0.05 mM after 3 hrs by flow cytometry analysis (reference value: 78.2%)", "type": "functional", "conditions": "Platelet"}, "[35]": {"test": "Toxicity in C57BL/6J mouse assessed as change in calcium level at 200 mg/kg twice daily for 60 days relative to control", "type": "organism-based", "conditions": "in vivo, 1440 h, time 60 day"}, "[36]": {"test": "Toxicity in C57BL/6J mouse assessed as change in thrombo-cytocrit at 200 mg/kg twice daily for 60 days relative to control", "type": "organism-based", "conditions": "in vivo, 1440 h, time 60 day"}, "[37]": {"test": "Toxicity in C57BL/6J mouse assessed as change in sodium level at 200 mg/kg twice daily for 60 days relative to control", "type": "organism-based", "conditions": "in vivo, 1440 h, time 60 day"}}, "note": "Activity calls are given as the source filed them. No cut-off for these calls is given here.", "data": [{"smiles": "CN(C)C(=N)NC(=N)NS(=O)(=O)C(F)(F)F", "values": [{"measurement": "Activity", "setting": "[1]", "value": 19.5, "unit": "%"}, {"measurement": "Activity", "setting": "[2]", "value": "Active"}, {"measurement": "Activity", "setting": "[3]", "value": 2.7, "unit": "mg"}, {"measurement": "Activity", "setting": "[4]", "value": "Non-Toxic"}, {"measurement": "inhibition in vivo at 200 mg/kg", "setting": "[5]", "value": 71.5, "unit": "%"}, {"measurement": "Activity", "setting": "[6]", "value": "Non-Toxic"}, {"measurement": "Activity", "setting": "[7]", "value": "Non-Toxic"}, {"measurement": "Activity", "setting": "[8]", "value": "Active"}, {"measurement": "Activity", "setting": "[9]", "value": "Non-Toxic"}, {"measurement": "Activity", "setting": "[10]", "value": "Non-Toxic"}, {"measurement": "AUC(0-inf)", "setting": "[11]", "value": 201, "unit": "µg·h/mL"}, {"measurement": "Activity", "setting": "[12]", "value": "Non-Toxic"}, {"measurement": "Activity", "setting": "[13]", "value": 21, "unit": "%"}, {"measurement": "Activity", "setting": "[14]", "value": "Non-Toxic"}, {"measurement": "Activity", "setting": "[15]", "value": "Non-Toxic"}, {"measurement": "Activity", "setting": "[16]", "value": "Non-Toxic"}, {"measurement": "Activity", "setting": "[17]", "value": "Non-Toxic"}, {"measurement": "Activity", "setting": "[18]", "value": "Non-Toxic"}, {"measurement": "Activity", "setting": "[19]", "value": 37, "unit": "%"}, {"measurement": "Activity", "setting": "[20]", "value": "Non-Toxic"}, {"measurement": "level, % of control at 50 µM", "setting": "[21]", "value": 74.3, "unit": "%"}, {"measurement": "level, % of control at 10 µM", "setting": "[22]", "value": 72.8, "unit": "%"}, {"measurement": "level, % of control at 1000 µM", "setting": "[23]", "value": 37.2, "unit": "%"}, {"measurement": "Time", "setting": "[24]", "value": 22.1, "unit": "min"}, {"measurement": "Activity", "setting": "[25]", "value": 44.2, "unit": "%"}, {"measurement": "inhibition", "setting": "[26]", "value": "Active"}, {"measurement": "Activity", "setting": "[27]", "value": "Non-Toxic"}, {"measurement": "Cmax", "setting": "[28]", "value": 24300, "unit": "ng/mL"}, {"measurement": "Activity", "setting": "[29]", "value": "Non-Toxic"}, {"measurement": "Activity", "setting": "[30]", "value": 21, "unit": "%"}, {"measurement": "Activity", "setting": "[31]", "value": 3.5, "unit": "mm"}, {"measurement": "Activity", "setting": "[32]", "value": "Non-Toxic"}, {"measurement": "Activity", "setting": "[33]", "value": 1.1, "unit": "mg"}, {"measurement": "level, % of control at 50 µM", "setting": "[34]", "value": 58.9, "unit": "%"}, {"measurement": "Activity", "setting": "[35]", "value": "Non-Toxic"}, {"measurement": "Activity", "setting": "[36]", "value": "Non-Toxic"}, {"measurement": "Activity", "setting": "[37]", "value": "Non-Toxic"}]}]}
